Reference: US9394298B2, “Pyrroloquinoline quinone tetraalkali salt and crystal thereof, methods for producing these, and composition” (Mitsubishi Gas Chemical Company, Inc., priority 2012, dated 2016)
Structures can show the parent of a compound that is named as a salt. Where two headings read alike, the source gives them in different places.

Legend:
Format in all cases: physicochemical
[1] = Test of the dissolution speed; details: 1 mg salt in 2 mL water; for Absorbance After 1 min / Absorbance After 30 min: absorbance at 450 nm, fully dissolved = 100
Procedure: 1 mg of each PQQ salt shown in Table 7 was added to an acryl-made absorbance measurement cell, and 2 mL of water was added thereto and the absorbance at 450 nm was measured.

[2] = Stability in alkalinity, from the liquid chromatography chart; details: solid obtained from alkaline solution
Procedure: PQQ was identified using the following apparatus.
Apparatus: a high performance liquid chromatography system, Lc-20A, manufactured by Shimadzu Corp.
Column: YMC-Pack ODS-Tms (5 μm), 150×4.6 mm I.D.
Measurement temperature: 40° C.
Detection: absorbance at 260 nm

[3] = Test of the reactivity with ascorbic acid; details: for State of the solution after adding ascorbic acid, after 2 hours / State of the solution after adding ascorbic acid, after 1 day: 1 g/L PQQ salt in water, 1 mL + 0.5 mL of 100 g/L ascorbic acid aqueous solution
Procedure: Each PQQ salt shown in Table 5 was dissolved in water so as to become 1 g/L. 0.5 mL of a 100 g/L ascorbic acid aqueous solution was added to 1 mL of the solution, and its states after 2 hours, after 1 day and after 2 days were observed.

Test of the solubility = details: for Solubility Ratio: ratio to Comp. Ex. 1 (Na2PQQ = 1); for Solubility: room temperature of 23° C., calculated from absorbance at 260 nm
Procedure: 50 mg of each PQQ salt shown in Table 6 was added to 0.5 mL of water so as to become supersaturated. Here, in the case where a PQQ salt was completely dissolved in this concentration, the amount of water was reduced. Thereafter, an ultrasonic wave was applied on the solution at room temperature of 23° C. The solution was subjected to a centrifugal separator; and the supernatant was subjected to a UV measurement by diluting it using a phosphoric acid buffer (pH: 7.4, manufactured by Gibco Corp.) so that the absorbance at 260 nm became in the range of 0 to 1. The solubility was calculated from the absorption.

Compound | Absorbance After 1 min [1] | Absorbance After 30 min [1] | Decomposed substances / stability in the alkalinity [2] | State of the solution after adding ascorbic acid, after 2 hours [3] | State of the solution after adding ascorbic acid, after 1 day [3] | Color change with ascorbic acid in a long-term observation [3] | Solubility Ratio (Test of the solubility) | Solubility (Test of the solubility; water) [mM] | Solubility, in words (Test of the solubility; water, 23° C.) | Dissolution speed, in words [1] | Solubility (Test of the solubility; thermodynamic from solid, water, read-out: Solubility) [mM] | State of the solution after adding ascorbic acid, after 2 hours ([3]; Trisodium Salt) | State of the solution after adding ascorbic acid, after 1 day ([3]; Trisodium Salt)
O=C(O)c1cc(C(=O)O)c2c(n1)C(=O)C(=O)c1cc(C(=O)O)[nH]c1-2.[K].[K].[K].[K] [Example 7, PQQ tetrapotassium salt] | 71 | 85 | no decomposed substances and was stable even in the alkalinity | red solution | red solution | hardly generated color change | 10.5 | 84 |  |  |  |  | 
O=C([O-])c1cc(C(=O)[O-])c2c(n1)C(=O)C(=O)c1cc(C(=O)O)[nH]c1-2.[Na+].[Na+] [Comp. Ex. 1, PQQ Disodium Salt, reference compound] | 41 | 48 |  | brown deposit | brown deposit |  | 1 | 7.99 |  |  |  |  | 
O=C(O)c1cc(C(=O)O)c2c(n1)C(=O)C(=O)c1cc(C(=O)O)[nH]c1-2.[Li].[Li].[Na].[Na] [Example 6, PQQ Disodium Dilithium Salt] |  |  | no decomposed substances and was stable even in the alkalinity | red solution | red solution |  | 11 | 89 |  |  |  |  | 
O=C(O)c1cc(C(=O)O)c2c(n1)C(=O)C(=O)c1cc(C(=O)O)[nH]c1-2.[Li].[Li].[Li].[Li] [Example 5, PQQ Tetralithium Salt] |  |  | no decomposed substances and was stable even in the alkalinity | red solution | red solution |  | 82 | 655 | more easily dissolved than the PQQ tetrasodium salt |  |  |  | 
O=C(O)c1cc(C(=O)O)c2c(n1)C(=O)C(=O)c1cc(C(=O)O)[nH]c1-2 [Example 1, PQQ Tetrasodium Salt] | 88 | 92 |  | red solution | red solution | hardly generated color change | 58 |  |  | higher dissolution speed than the PQQ disodium salt | 463 |  | 
O=C(O)c1cc(C(=O)O)c2c(n1)C(=O)C(=O)c1cc(C(=O)O)[nH]c1-2 [Comp. Ex. 2, PQQ Trisodium Salt, reference compound] |  |  |  |  |  |  | 3.8 | 30.4 |  |  |  | brown deposit | brown deposit
